Assay: SOD-like activity (superoxide scavenging activity) by ESR spin trap method, hypoxanthine-xanthine oxidase system with DMPO
Format: biochemical
Settings: for SOD-like activity after emulsification: after emulsification (Tween-80 or other emulsifier), figures in parentheses; for SOD-like activity (superoxide scavenging activity): not emulsified, extracted with untreated 0.1 M phosphate buffer
Source text: This superoxide scavenging activity will be described in further detail below. Superoxides (O2') are a type of active oxygen that are produced by neutrophils and macrophages and protect the body from impurities, but also are the cause of pulmonary emphysema, cataracts, arteriosclerosis, psoriasis, and the like. These superoxides are, therefore, a double-edged sword. The enzyme activity of superoxide dismutase (SOD) and superoxide scavenging activity (SOSA or SOD-like activity) are examples of the ability of food products to eliminate O2'. The former is an enzyme and is therefore broken down by digestive enzymes and goes virtually unabsorbed in vivo when taken orally. Consequently, the latter is promising for food products. […] ESR is a method for measuring SOD-like activity and assessing the ability of […] to scavenge O2'. […] This method is also called the spin trap method. In accordance with preparation by this spin trap method, only the water-soluble components are extracted in order to extract the component with SOD-like activity contained in a sample with 0.1 M phosphate buffer. […] Consequently, measuring superoxide […] activity with the isoflavone pre-emulsified in a small amount of oil or fat was contemplated.

Compound	SOD-like activity after emulsification	SOD-like activity (superoxide scavenging activity)
O=c1c(-c2ccc(O)cc2)coc2cc(O)cc(O)c12 [Genistein, genistein]	(300 or units/g	300 or less units/g
O=c1c(-c2ccc(O)cc2)coc2cc(O)ccc12 [Daidzein, daidzein]	(300 or units/g	300 or less units/g
